Consider 16 molecules from article PMC10611374, “Characterization of the Hemolytic Activity of Mastoparan Family Peptides from Wasp Venoms” (Toxins, 2023).

Assay [1] relates to human red blood cells (HRBCs). In words: Hemolytic assay on human red blood cells. The class given is cell-based. As to conditions: human red blood cells 5% (v/v) in PBS, 37 °C 1 h, OD 540 nm; for HRBC Hemolysis (hemolysis rate at 320 μg/mL): peptide 320 μg/mL (highest dose), PBS = 0%, mean of three independent experiments; for EC50: four-parameter logistic fit of mean of three independent experiments, '-' = hemolytic activity too low to calculate the EC50. The method, then:
(§1) Fresh human red blood cells were obtained from healthy donors and collected in a sterile blood collecting vessel covered with sodium citrate (1:9) as the anticoagulating agent. Rat red blood cells were collected from the abdominal aorta in sterile blood-collecting vessels coated with sodium citrate (1:4) after the SD rats were anaesthetized with isoflurane. Then, the cells were washed three times with phosphate-buffered saline via centrifugation (1000× g, 4 °C, 5 min) and prepared in a sterile 96-well polypropylene plate to achieve a final concentration of 5% (v/v). Twofold dilutions of the peptides were prepared in PBS to 100 μL and mixed with an equal volume of HRBCs/RRBCs suspension to final peptide concentrations ranging from 10 to 320 μg/mL. After coincubation at 37 °C for 1 h, the plate was centrifuged (2000× g, 4 °C, 20 min), and 100 μL of supernatant was taken for optical density measurements at 540 nm using a microtiter plate reader (SpectraMax 190). The HRBCs/RRBCs were assayed with PBS (blank) or 1% Triton X-100 (positive control) to represent 0% and 100% hemolysis, respectively. The percent hemolysis was calculated according to the following equation: Hemolysis Rate (%) = 100% × (Amastoparans − Ablank)/(ATriton X-100 − Ablank). Three independent experiments were performed, and the mean hemolysis rate at each dose was used to calculate the EC50 in Sigmaplot software.
(§2) Statistical analysis was performed with GraphPad Prism software (version 5.0, San Diego, CA, USA). A two-tailed Student’s t-test was used to calculate the statistical probability in this study. Differences in the data were considered to be statistically significant when the p value was equal to or less than 0.05. The curve of hemolysis induced by wasp mastoparans was generated in SigmaPlot 12.5 software, and the EC50 was calculated according to the equation (Four Parameter Logistic Curve): y = min + (max − min)/(1 + (x/EC50)^−Hillslope). The heat map of hemolytic activity of mastoparan peptide was analysed in R software which is based on the value of log2(EC50).

Assay [2] relates to rat red blood cells (RRBCs). As to the kind of experiment: Hemolytic assay on rat red blood cells. The class given is cell-based, SD rats. The following applies: rat red blood cells 5% (v/v) in PBS, 37 °C 1 h, OD 540 nm; for RRBC Hemolysis (hemolysis rate at 320 μg/mL): peptide 320 μg/mL (highest dose), PBS = 0%, mean of three independent experiments; for EC50: four-parameter logistic fit of mean of three independent experiments, '-' = hemolytic activity too low to calculate the EC50. The method, then: as §1, §2

Setting [3] is: peptide 10-320 μg/mL twofold dilutions, 1% Triton X-100 = 100%, read-out: HRBC EC50 (hemolytic activity).
[4] abbreviates: peptide 10-320 μg/mL twofold dilutions, 1% Triton X-100 = 100%, read-out: RRBC EC50 (hemolytic activity).
The mark [5] stands for this setting: Table 2 series, read-out: HRBC EC50 (hemolytic activity), Protopolybia-MPIII and mutants.
[6] abbreviates: Table 2 series, read-out: RRBC EC50 (hemolytic activity), Protopolybia-MPIII and mutants.

Where “and” joins values, the source holds several entries; their conditions need not be identical. Equal entries are not always repeated. Where two headings read alike, the source gives them in different places. Ends that are not written are not given here.

With INLKALAALVKKVL-NH2 [Mastoparan-II], the “HRBC Hemolysis (hemolysis rate at 320 μg/mL)” value (“HRBC Hemolysis” below) in assay [1] (1% Triton X-100 = 100%) is 78%. Besides, the concentration giving a half-maximal response (EC50) in assay [1] (setting [3]) was 134.6 ± 1.2 µM; in assay [2] (setting [4]), 147 ± 3.4 µM. Also, the “RRBC Hemolysis (hemolysis rate at 320 μg/mL)” value (from here on “RRBC Hemolysis”) in assay [2] (1% Triton X-100 = 100%) stood at 90%.
For INWLKLGKKILGAI-NH2 [Pm-R1] the same measures were 100%, 72 ± 8.5 µM, 105 ± 2.2 µM and 92%.
The matching figures for INWKAIIEAAKQAL-NH2 [Protopolybia-MPII]: 13%, greater than 400 µM, greater than 400 µM and 24%.
As for INWKKIKSLIKAAMS-NH2 [Mastoparan-V2], in assay [1] (1% Triton X-100 = 100%), the “HRBC Hemolysis” value was determined as 15%. Besides, in assay [2] (1% Triton X-100 = 100%), the “RRBC Hemolysis” value is 52%. Further, the EC50 in assay [2] (setting [4]) is 182 ± 3.6 µM.
Regarding INWLKLGKKILGAL-NH2 [PDD-B], the “HRBC Hemolysis” value in assay [1] (1% Triton X-100 = 100%) is recorded as 100%. For the same molecule, the EC50 in assay [1] (setting [3]) is 48.5 ± 3.4 µM; in assay [2] (setting [4]), 55.6 ± 4.1 µM. In addition, in assay [2] (1% Triton X-100 = 100%), the “RRBC Hemolysis” value is reported as 100%.
In the case of `CC[C@H](C)[C@H](NC(=O)[C@H](CC(=O)O)NC(=O)[C@@H](N)Cc1ccccc1)C(=O)N[C@@H](CCSC)C(=O)NCC(=O)N[C@@H](CC(C)C)C(=O)N[C@H](C(=O)N[C@@H](CCCCN)C(=O)N[C@@H](CCCCN)C(=O)N[C@H](C(=O)N[C@@H](C)C(=O)NCC(=O)N[C@@H](C)C(=O)N[C@@H](CC(C)C)C(N)=O)C(C)C)[C@@H](C)CC` [EMP-ER], the “HRBC Hemolysis” value in assay [1] (1% Triton X-100 = 100%) amounted to 25%. In assay [2] (1% Triton X-100 = 100%), the “RRBC Hemolysis” value was found to be 46%. The half-maximal effective concentration (EC50) in assay [2] (setting [4]) is 231 ± 3.7 µM.
With “INWLKLGKKVIDIL-NH2 [Protopolybia-MPIII-7]”, the EC50 in assay [1] (setting [5]) is 37.8 ± 3.7 µM; in assay [2] (setting [6]), 57.5 ± 2.7 µM.
Take INWHDIAIKNIDAL-NH2 [Polybia-MP V]: the “HRBC Hemolysis” value in assay [1] (1% Triton X-100 = 100%) is 0%. The EC50 in assay [1] (setting [3]) and in assay [2] (setting [4]) was greater than 400 µM throughout. Further, in assay [2] (1% Triton X-100 = 100%), the “RRBC Hemolysis” value came out at 0%.
Turning to `CC[C@H](C)[C@H](N)C(=O)N[C@@H](CC(N)=O)C(=O)N[C@@H](CC(C)C)C(=O)N[C@@H](CCCCN)C(=O)N[C@@H](C)C(=O)N[C@@H](CC(C)C)C(=O)N[C@@H](C)C(=O)N[C@@H](C)C(=O)N[C@@H](CC(C)C)C(=O)N[C@@H](C)C(=O)N[C@@H](CCCCN)C(=O)N[C@@H](CCCCN)C(=O)N[C@H](C(=O)N[C@@H](CC(C)C)C(N)=O)[C@@H](C)CC` [Mastoparan (L)], the “HRBC Hemolysis” value in assay [1] (1% Triton X-100 = 100%) is on record as 100%. For the same molecule, the figures for the EC50 in assay [1] (setting [3]) and in assay [2] (setting [4]) were 82.9 ± 3.8 µM and 242 ± 2.6 µM, respectively. In addition, the “RRBC Hemolysis” value in assay [2] (1% Triton X-100 = 100%) was determined as 41%.
“INWLKLGKAVIAIL-NH2 [Protopolybia-MPIII-10]”: the EC50 in assay [1] (setting [5]) is 11.3 ± 1.2 µM; in assay [2] (setting [6]), 11.7 ± 1 µM.
For the molecule INWKAILQRIKKML-NH2 [Agelaia-MPII], the “HRBC Hemolysis” value in assay [1] (1% Triton X-100 = 100%) was 100%. Also, the EC50 is 44.8 ± 10.4 µM in assay [1] (setting [3]) and 62.1 ± 3.8 µM in assay [2] (setting [4]). Moreover, in assay [2] (1% Triton X-100 = 100%), the “RRBC Hemolysis” value is reported as 97%.
On to INLLKIAKGIIKSL-NH2 [EMP-AF], for which the “HRBC Hemolysis” value in assay [1] (1% Triton X-100 = 100%) worked out at 100%. The EC50 is 111 ± 9.8 µM in assay [1] (setting [3]) and 122 ± 13.1 µM in assay [2] (setting [4]). In addition, in assay [2] (1% Triton X-100 = 100%), the “RRBC Hemolysis” value is on record as 100%.
On to “INWLKLGKKVIAIL-NH2 [Protopolybia-MPIII-12]”, for which the results for the EC50 in assay [1] (setting [5]) and in assay [2] (setting [6]) were 43.9 ± 3.6 µM and 55.2 ± 2.2 µM, respectively.
As to INWKKMAATALKMI-NH2 [Parapolybia-MP], the “HRBC Hemolysis” value in assay [1] (1% Triton X-100 = 100%) was determined as 32%. Further, the EC50 in assay [1] (setting [3]) is ≥ 400 µM and > 400 µM and 306 µM. Moreover, the “RRBC Hemolysis” value in assay [2] (1% Triton X-100 = 100%) stood at 22%.
For INWLKLGKAIIDAL-NH2 [Agelaia-MPI], in assay [1] (1% Triton X-100 = 100%), the “HRBC Hemolysis” value came out at 100%. Besides, the EC50 in assay [1] (setting [3]) was 3.7 ± 0.14 µM; in assay [2] (setting [4]), 7 ± 0.7 µM. For the same molecule, the “RRBC Hemolysis” value in assay [2] (1% Triton X-100 = 100%) is given as 98%.
As to LNFKALAALAKKIL-NH2 [Pm-R2], the “HRBC Hemolysis” value in assay [1] (1% Triton X-100 = 100%) is 66%. Besides, the EC50 was 166 ± 8 µM in assay [1] (setting [3]) and 250 ± 9.9 µM in assay [2] (setting [4]). In addition, the “RRBC Hemolysis” value in assay [2] (1% Triton X-100 = 100%) amounted to 34%.
